How the values were obtained:
T-cell [1] = experiment: CD25 cell surface staining on T-cells stimulated with anti-CD3 antibody alone (Biological Example 2); type: cell-based, human; settings: T-cell, fold change over baseline, primary human total T-cells, read-out: CD25 staining Anti-CD3 stimulation; for fold induction at 1 µM: 1 μM Cbl-b inhibitor; for fold induction at 8 µM: 8 μM Cbl-b inhibitor
Cbl-b [2] = target: T1, Cbl-b (Homo sapiens, UniProt Q13191); experiment: Cbl-b inhibition assay (Cbl-b activity assay, FRET, Biological Example 1; 100 mM NaCl, 60 nM Src kinase); type: biochemical; settings: upper bound stated in text lists; read-out: IC50 values in the Cbl-b inhibition assay of Biological Example 1
T1 sequence (Q13191 36-427): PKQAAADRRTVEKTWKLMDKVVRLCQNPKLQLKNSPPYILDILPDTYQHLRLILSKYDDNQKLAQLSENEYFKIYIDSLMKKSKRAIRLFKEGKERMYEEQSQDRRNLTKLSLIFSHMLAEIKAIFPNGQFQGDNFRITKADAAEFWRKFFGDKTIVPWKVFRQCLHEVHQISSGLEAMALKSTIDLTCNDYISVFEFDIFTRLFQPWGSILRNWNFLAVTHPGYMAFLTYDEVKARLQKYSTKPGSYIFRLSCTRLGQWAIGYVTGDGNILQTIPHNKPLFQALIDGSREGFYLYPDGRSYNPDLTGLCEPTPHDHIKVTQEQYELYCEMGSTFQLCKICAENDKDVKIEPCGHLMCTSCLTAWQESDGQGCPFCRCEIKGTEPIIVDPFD
Procedure, shortened: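 Inhibition is read as loss of FRET signal. The signal arises when Src-phosphorylated, N-terminal biotinylated Avi-Cbl-b (captured by streptavidin-terbium) binds UbcH5B carrying covalently linked Bodipy-Fluorescein-tagged ubiquitin.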

Cbl-b [3] = target: T1, Cbl-b; experiment: Cbl-b activity assay (Cbl-b inhibition assay), TR-FRET of Cbl-b interaction with UbcH5B-Ub; type: biochemical; settings: assay buffer with 100 mM NaCl, 60 nM Src kinase; read-out: Cbl-b activity IC50
Procedure, shortened: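 UbcH5B (C85K) conjugated to N-terminally Bodipy-Fluorescein-labeled ubiquitin served as the fluorescent partner. After compound preincubation, Src kinase (60 nM) with 1 mM ATP and 5 mM MgCl2 (final) was added for 1.5 h, followed by a further 1 h incubation. Some values were obtained with 50 mM NaCl and 30 nM Src.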

T-cell [4] = experiment: IL-2 secretion from T-cells stimulated with anti-CD3 antibody alone (Biological Example 2); type: cell-based, human; settings: T-cell, fold change over baseline, primary human total T-cells, read-out: IL-2 secretion Anti-CD3 stimulation; for fold induction at 1 µM: 1 μM Cbl-b inhibitor; for fold induction at 8 µM: 8 μM Cbl-b inhibitor
T-cell [5] = experiment: CD25 cell surface staining on T-cells co-stimulated with anti-CD3 and anti-CD28 antibody (Biological Example 2); type: cell-based, human; settings: Homo sapiens, T-cell, fold change over baseline, primary human total T-cells, read-out: CD25 staining Anti-CD3/Anti-CD28 stimulation; for fold induction at 0.3 µM: 0.3 μM Cbl-b inhibitor; for fold induction at 1 µM: 1 μM Cbl-b inhibitor; for fold induction at 4 µM: 4 μM Cbl-b inhibitor
Procedure, shortened: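 T-cells were stimulated with anti-CD3 antibody alone or with anti-CD28 antibody, in the presence or absence of Cbl-b inhibitor. IL-2 secretion or CD25 surface staining was measured, and values expressed as fold over the uninhibited baseline […].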

| Structure (SMILES) | fold induction at 1 µM (T-cell [1]) | fold induction at 8 µM (T-cell [1]) | IC50 (Cbl-b [2]) | IC50 (Cbl-b [3]) | fold induction at 1 µM (T-cell [4]) | fold induction at 8 µM (T-cell [4]) | fold induction at 0.3 µM (T-cell [5]) | fold induction at 1 µM (T-cell [5]) | fold induction at 4 µM (T-cell [5]) |
| --- | --- | --- | --- | --- | --- | --- | --- | --- | --- |
| C[C@H](Sc1nncn1C)c1cccc(NC(=O)c2cc(C(=O)N3CC(O)C3)ccn2)c1 [Compound 148, (S)-4-(3-hydroxyazetidine-1-carbonyl)-N-(3-(1-((4-methyl-4H-1,2,4-triazol-3-yl)thio)ethyl)phenyl)picolinamide] | < 0.6 | 0.601 to 0.8 | ≤ 500 nM | 301 to 1000 nM | < 0.05 | < 0.05 | < 1 | < 1 | < 1 |
| C[C@H](Sc1nncn1C)c1cccc(NC(=O)c2cc(C(=O)N3C[C@H](O)C[C@@H]3C)ccn2)c1 [Compound 151, 4-((2S,4R)-4-hydroxy-2-methylpyrrolidine-1-carbonyl)-N-(3-((S)-1-((4-methyl-4H-1,2,4-triazol-3-yl)thio)ethyl)phenyl)picolinamide] | < 0.6 | 0.601 to 0.8 | ≤ 1000 nM | 301 to 1000 nM | < 0.05 | < 0.05 | 1.01 to 1.3 | 1.01 to 1.3 | 1.01 to 1.3 |
| C[C@H](Sc1nncn1C)c1cccc(N2Cc3c(cccc3C(F)(F)F)C2=O)c1 [Compound 166a, (S)-2-(3-(1-((4-methyl-4H-1,2,4-triazol-3-yl)thio)ethyl)phenyl)-4-(trifluoromethyl)isoindolin-1-one] | 0.601 to 0.8 | 0.801 to 1 | ≤ 500 nM | 100 to 300 nM | < 0.05 | < 0.05 | < 1 | 1.01 to 1.3 | 1.01 to 1.3 |
| C[C@H](Sc1nncn1C)c1cccc(N2Cc3c(ccnc3Cl)C2=O)c1 [Compound 167, 4-chloro-2-[3-[(1S)-1-[(4-methyl-1,2,4-triazol-3-yl)sulfanyl]ethyl]phenyl]-3H-pyrrolo[3,4-c]pyridin-1-one] | < 0.6 | 0.601 to 0.8 | ≤ 500 nM | 301 to 1000 nM | < 0.05 | 0.101 to 0.15 | 1.51 to 1.75 | 1.01 to 1.3 | > 1.76 |
| CC(Sc1nncn1C)c1cc(F)cc(N2Cc3c(cccc3C(F)(F)F)C2=O)c1 [Compound 168, 2-[3-fluoro-5-[(1R)-1-[(4-methyl-1,2,4-triazol-3-yl)sulfanyl]ethyl]phenyl]-4-(trifluoromethyl)isoindolin-1-one] | 0.801 to 1 | 0.601 to 0.8 | ≤ 500 nM | 301 to 1000 nM | < 0.05 | 0.051 to 0.1 | < 1 | < 1 | 1.01 to 1.3 |
| C[C@H](Sc1nncn1C)c1cc(F)cc(N2Cc3c(cccc3C(F)(F)F)C2=O)c1 [Compound 168a, 2-[3-fluoro-5-[(1S)-1-[(4-methyl-1,2,4-triazol-3-yl)sulfanyl]ethyl]phenyl]-4-(trifluoromethyl)isoindolin-1-one] | < 0.6 | 0.801 to 1 | ≤ 500 nM | 100 to 300 nM | < 0.05 | < 0.05 | 1.01 to 1.3 | 1.01 to 1.3 | 1.01 to 1.3 |
| C[C@H](Sc1nncn1C)c1ccnc(N2Cc3c(cccc3C(F)(F)F)C2=O)c1 [Compound 172a, (S)-(4-(1-((4-methyl-4H-1,2,4-triazol-3-yl)thio)ethyl)pyridin-2-yl)-4-(trifluoromethyl)isoindolin-1-one] | < 0.6 | < 0.6 | ≤ 1000 nM | 301 to 1000 nM | < 0.05 | < 0.05 | < 1 | < 1 | < 1 |
| C[C@H](Cc1nncn1C)c1cccc(NC(=O)c2cccc(S(C)(=O)=O)n2)c1 [Compound 185, (R)-N-(3-(1-(4-methyl-4H-1,2,4-triazol-3-yl)propan-2-yl)phenyl)-6-(methylsulfonyl)picolinamide] | < 0.6 | < 0.6 | ≤ 1000 nM | 301 to 1000 nM | 0.051 to 0.1 | 0.051 to 0.1 | 1.01 to 1.3 | > 1.76 | > 1.76 |
| C[C@H](Cc1nncn1C)c1cccc(NC(=O)c2cc(C(C)(C)O)c(Cl)cn2)c1 [Compound 186, (R)-5-chloro-4-(2-hydroxypropan-2-yl)-N-(3-(1-(4-methyl-4H-1,2,4-triazol-3-yl)propan-2-yl)phenyl)picolinamide] | < 0.6 | < 0.6 | ≤ 500 nM | 301 to 1000 nM | 0.051 to 0.1 | 0.101 to 0.15 | 1.01 to 1.3 | 1.31 to 1.5 | > 1.76 |
| C[C@H](Cc1nncn1C)c1cccc(NC(=O)c2ccnc(C(F)(F)F)n2)c1 [Compound 187, (R)-N-(3-(1-(4-methyl-4H-1,2,4-triazol-3-yl)propan-2-yl)phenyl)-2-(trifluoromethyl)pyrimidine-4-carboxamide] | 0.801 to 1 | > 1 | ≤ 500 nM | 100 to 300 nM | > 0.201 | > 0.201 | 1.51 to 1.75 | > 1.76 | > 1.76 |
| C[C@H](Cc1nncn1C)c1cccc(NC(=O)c2cccc(C(F)(F)CO)n2)c1 [Compound 188, (R)-6-(1,1-difluoro-2-hydroxyethyl)-N-(3-(1-(4-methyl-4H-1,2,4-triazol-3-yl)propan-2-yl)phenyl)picolinamide] | < 0.6 | < 0.6 | ≤ 500 nM | 100 to 300 nM | < 0.05 | 0.051 to 0.1 | 1.01 to 1.3 | 1.31 to 1.5 | > 1.76 |
| C[C@H](Cc1nncn1C)c1cccc(NC(=O)c2cncc(C(F)(F)F)n2)c1 [Compound 189, (R)-N-(3-(1-(4-methyl-4H-1,2,4-triazol-3-yl)propan-2-yl)phenyl)-6-(trifluoromethyl)pyrazine-2-carboxamide] | 0.601 to 0.8 | > 1 | ≤ 500 nM | 100 to 300 nM | 0.051 to 0.1 | 0.051 to 0.1 | > 1.76 | > 1.76 | > 1.76 |
| C[C@H](Cc1nncn1C)c1cccc(NC(=O)c2cc(C3(O)COC3)cc(C(F)(F)F)n2)c1 [Compound 190, (R)-4-(3-hydroxyoxetan-3-yl)-N-(3-(1-(4-methyl-4H-1,2,4-triazol-3-yl)propan-2-yl)phenyl)-6-(trifluoromethyl)picolinamide] | 0.601 to 0.8 | > 1 | ≤ 500 nM | 100 to 300 nM | < 0.05 | 0.101 to 0.15 | > 1.76 | > 1.76 | > 1.76 |
